{
  "source": "paper PMC9297664",
  "about": "“Cationic peptide carriers enable long-term delivery of insulin-like growth factor-1 to suppress osteoarthritis-induced matrix degradation” (Arthritis Research & Therapy, 2022)",
  "key": {"endplate chondrocytes": {"system": "endplate chondrocytes", "conditions": "IGF-1 administration; cited from earlier work"}, "[1]": {"parameters": "method as in 3 sources, ref 37 = [37]; PMID 24470361; doi:10.1002/art.38357; 37. Loffredo FS Pancoast JR Cai L Vannelli T Dong JZ Lee RT Targeted delivery to cartilage is critical for in vivo efficacy of insulin-like growth factor 1 in a rat model of osteoarthritis Arthritis R ||| ref 42 = [42]; PMID 20722014; doi:10.1002/art.27709; 42. Miller RE Grodzinsky AJ Cummings K Plaas AHK Cole AA Lee RT Intraarticular injection of heparin-binding insulin-like growth factor 1 sustains delivery of insulin-like growth factor 1 to cartilage ||| ref 43 = [43]; PMID 30487252; doi:10.1126/scitranslmed.aat8800; 43. Geiger BC Wang S Padera RF Grodzinsky AJ Hammond PT Cartilage-penetrating nanocarriers improve delivery and efficacy of growth factor treatment of osteoarthritis Sci Transl Med 2018 10 eaat8800 10", "conditions": "cited from earlier work; for Detection in cartilage samples: rat cartilage, 6 days post-IA injection"}, "[2]": {"system": "IL-1α treated cartilage explants", "test": "Cellular metabolism in cartilage explants (AlamarBlue)", "assay_type": "cell-based, bovine", "conditions": "IL-1α 2 ng/mL, days 8 and 16", "protocol": "(§1) Media was collected and changed every 2 days and IL-1α was replenished with each media change. […] IL-1α is chosen for this in-vitro post-traumatic (PTOA) model as it is elevated during the inflammatory phase following an injury and causes degradation of aggrecans, collagens, inhibits proteoglycan synthesis, and alters chondrocyte viability. 2 ng/mL concentration was chosen as it represents a moderately aggressive cytokine treatment.\nOn days 8 and 16 of culture, cellular metabolism in cartilage explants was determined by measuring the metabolic oxidation activity by using AlamarBlue assay. Briefly, cartilage explants were individually incubated with media containing 1× resazurin sodium salt for 3 h in the dark at 37 °C and 5% CO2. Cell metabolic activity was estimated by measuring fluorescence at 530 nm excitation and 590 nm emission wavelengths using a microplate reader (Synergy H1, Biotek)."}, "[3]": {"system": "IL-1α treated cartilage explants", "test": "Nitrite release from cartilage to medium (Griess assay)", "assay_type": "cell-based, bovine", "conditions": "IL-1α 2 ng/mL; for Nitrite production: days 2, 8 and 16", "protocol": "as §1\nNitrite content was measured using the Griess assay as a marker of nitric oxide (NO) release from cartilage into the medium. Equal volumes of Griess reagent and culture media collected every two days were mixed and incubated at room temperature for 15 min, and absorbance at 540 nm was measured using a microplate reader (Synergy H1, Biotek). Sodium nitrite solution in DMEM was used as a standard to convert absorbance readings to nitrite content in the sample medium."}, "[4]": {"system": "human OA cartilage explants", "parameters": "method as in PMID 18050312", "conditions": "cited from earlier work"}, "[5]": {"system": "IL-1α treated cartilage explants", "test": "GAG loss from cartilage (DMMB), IL-1α-challenged explant culture post-traumatic OA model", "assay_type": "cell-based, bovine", "conditions": "IL-1α 2 ng/mL", "protocol": "as §1\nAfter 16 days of culture, the cartilage explants were weighed and digested using Proteinase-K solution in Tris buffer at pH 8. The cumulative GAG released to the media and the residual GAG content in the digested tissue explants was measured using DMMB assay. The GAG content was expressed as a percentage of the total GAG content (in media + residual GAG in the digested explant)."}, "[6]": {"system": "IL-1 and TNF-α challenged cartilage", "conditions": "cited from earlier work", "description": "Media was collected and changed every 2 days and IL-1α was replenished with each media change."}, "[7]": {"system": "chondrocytes in IL-1α treated cartilage explants", "test": "Chondrocyte viability in cartilage (FDA/PI live-dead staining)", "assay_type": "cell-based, bovine", "conditions": "IL-1α 2 ng/mL, days 8 and 16", "protocol": "as §1\nOn days 8 and 16 of culture, 100 μm thick slices were cut from the center of cartilage disks as described before. Cartilage slices were stained with FDA (4 mg/ml in PBS) and PI ([…] in PBS) for 5 min. FDA stained viable cells green and PI stained the non-viable cells red. Slices were washed with PBS and imaged using a fluorescence microscope (Nikon Eclipse TS2R) at 4× objective. The viable and non-viable cell images were overlaid using ImageJ."}, "[8]": {"test": "Depth of penetration, 1-D transport chamber, confocal imaging, absorption then desorption", "assay_type": "in vitro ADME, bovine", "protocol": "The chamber was placed in a covered petri dish with DI water inside an incubator at 37 °C under gentle shaking. After 24 h, a 100 μm slice was cut from the center of the explant and imaged using a confocal microscope (Zeiss LSM 800). Cy5 (red channel) was excited 640 nm laser and FITC (green channel) was excited using a 488 nm laser. Z-stacks of images from both channels were obtained and maximum intensity along the z-axis was projected. The intensity across the thickness to represent the penetration concentration profile was plotted along a straight line from the superficial to deep zone using FIJI."}, "rat knee joints": {"system": "rat knee joints", "conditions": "post-IA injection in ACL transected (ACLT) rat knee joints, compared to free IGF-1; cited from earlier work", "description": "The high negative FCD of cartilage resulting from the negatively charged GAGs provides a unique opportunity to make drug cartilage penetrating using cationic carriers."}, "[9]": {"conditions": "single dose 1000 ng/ml IGF-1 (S), free or as conjugate"}},
  "note": "“Also recorded” adds a separate entry of the source.",
  "data": [
    {"substance": "IGF-1: Human recombinant insulin-like growth factor-1, ~7.6 kDa pro-anabolic growth factor (PeproTech)", "values": [
      {"measurement": "Decrease of MMP-13 expression", "setting": "endplate chondrocytes", "result": 50, "unit": "%"},
      {"measurement": "Retention in cartilage / joint tissues", "setting": "[1]; 24 h post-IA injection in rats", "result": "no free IGF-1 was detectable in any joint tissues"},
      {"measurement": "Retention in cartilage", "setting": "[1]; 2 days post-IA injection in rat knees", "result": "no retention of free IGF-1 was observed in cartilage"},
      {"measurement": "Detection in cartilage samples", "setting": "[1]", "result": "no trace of free IGF-1 was detectable"},
      {"measurement": "Chondrocyte metabolic activity", "setting": "[2]; continuous dose 100 ng/ml (C)", "result": "match the response from the untreated control condition"},
      {"measurement": "Chondrocyte metabolic activity", "setting": "[2]; single dose 100 ng/ml (S)", "result": "not effective in rescuing chondrocyte metabolic activity or viability"},
      {"measurement": "Chondrocyte metabolic activity", "setting": "[2]; [9]", "result": "failed to rescue the reduced cell metabolism and viability over the long-term; also recorded: ineffective in rescuing the reduced metabolic rate"},
      {"measurement": "Cumulative nitrite levels", "setting": "[3]; continuous dose 100 ng/ml (C), 16 days", "result": "significantly suppressed the IL-1-induced cumulative nitrite levels"},
      {"measurement": "Nitrite production", "setting": "[3]; single dose 100 ng/ml (S)", "result": "suppressed nitrite production only on day 2"},
      {"measurement": "Nitrite production", "setting": "[3]; [9]", "result": "suppressed nitrite production only on day 2"},
      {"measurement": "Increase of proteoglycan synthesis", "setting": "[4]; 3 ng/ml IGF-1, milder degree of OA explants (MANKIN score 4)", "result": 1.8, "unit": "fold"},
      {"measurement": "Enhancement of proteoglycan synthesis", "setting": "[4]; 30 ng/ml IGF-1, advanced OA cartilage explants (MANKIN score 8)", "result": 2.6, "unit": "fold"},
      {"measurement": "GAG loss to media", "setting": "[5]; continuous dose 100 ng/ml (C), replenished every 2 days, 16-day culture", "result": "keep the GAG loss levels down to control levels"},
      {"measurement": "GAG loss to media", "setting": "[5]; single dose 100 ng/ml (S), first 2 days only, day 2", "result": "significantly inhibited GAG loss by day 2"},
      {"measurement": "Cumulative GAG loss to media", "setting": "[5]; single dose 1000 ng/ml IGF-1 (S), free or as conjugate, 16-day culture", "result": "remained ineffective in providing a prolonged effect"},
      {"measurement": "Saturating concentration for suppression of GAG loss", "setting": "[6]; IL-1 and TNF-α challenged cartilage culture models, multiple dosing", "result": 100, "unit": "ng/mL"},
      {"measurement": "Concentration at which the therapeutic effect saturates (suppression of IL-1α-induced catabolic activity)", "setting": "[6]; similar cartilage explant culture model", "result": 100, "unit": "ng/mL"},
      {"measurement": "Chondrocyte viability", "setting": "[7]; continuous dose 100 ng/ml (C)", "result": "match the response from the untreated control condition"},
      {"measurement": "Chondrocyte viability", "setting": "[7]; single dose 100 ng/ml (S)", "result": "not effective in rescuing chondrocyte metabolic activity or viability"},
      {"measurement": "Chondrocyte viability", "setting": "[7]; [9]", "result": "failed to rescue the reduced cell metabolism and viability over the long-term; also recorded: not effective"},
      {"measurement": "Depth of penetration from superficial to deep zone", "setting": "[8]", "result": "penetrated through the full thickness of cartilage"},
      {"measurement": "Retention in cartilage after desorption", "setting": "[8]", "result": "most of the free IGF-1 desorbed out of the cartilage"},
      {"measurement": "Time for desorption out of the cartilage", "setting": "[8]", "result": "≤ 24", "unit": "h"}
    ]},
    {"substance": "PAMAM-IGF-1: IGF-1 carried by polyamidoamine (PAMAM) dendrimer cationic nanoparticles (Gen 6, 58 kDa) [reference compound]", "values": [
      {"measurement": "Matrix degradation and osteophyte formation", "setting": "rat knee joints", "result": "significantly suppressed matrix degradation and osteophyte formation"},
      {"measurement": "Detection in cartilage samples", "setting": "[1]", "result": "detected"},
      {"measurement": "Duration of bioavailability of IGF-1 in the knee joint space", "setting": "[1]; rat knee joint space post-IA injection", "result": 30.4, "unit": "days"}
    ]}
  ]
}
